A short description of series [1]: In vivo intracolonic (i.c.) dosing: plasma and colon tissue concentrations (Protocol 3). Conditions: mice; for concentration at 4 h: colon, read-out: Colon Concentration After i.c. Dosing, Mean. The arrangement: species or system female C57BL/6 mice. An excerpt:
Plasma and colon concentration results were obtained by following Protocol 1 using venipuncture of dorsal metatarsal vein bleed for Compounds (B), (C), and Examples 10 and 74. Plasma and colon concentration results were obtained by following Protocol 2 using retro-orbital bleed for Compounds (A), and Examples 1, and 3-5 and Protocol 2 using venipuncture of the dorsal metatarsal vein for Examples 2, 22, 34, 38, 55, and 85. Plasma and colon concentration results were obtained by following Protocol 3 for Examples 1, 3 and 4. These protocols are described below under the heading In vivo Studies.
Intracolonic (IC) dose group: Following anesthesia with isoflurane by inhalation, three non-fasted female C57BL/6 mice were administered the compound intracolonically through a small incision in the abdominal wall using a syringe and needle at a dose of 5 mg/kg as a solution in 20% HPβCD at a dose volume of 1 mL/kg. Blood samples were collected at 0.5, 2, and 4 h post dose via retro-orbital bleed. Blood samples were collected into tubes containing anticoagulant (Heparin-Na) and placed on wet ice. The plasma fraction was separated by centrifugation and frozen at −20° C. for up to 4 h and −80° C. after 4 h unless analyzed shortly after sample collection. Colon samples were collected at 4 h post dose. From 2 cm below the cecum, a 4-cm sample of the colon was dissected, cut open on the longitudinal axis, and the solid contents removed by flushing with 2 mL of saline. The colon was further washed by putting it in 5 mL of saline and shaken for 5 seconds. The colon sample was then patted dry, weighed, and homogenized as 1 part tissue (g) to 4 parts HPLC grade water (mL). Concentrations of the compound in plasma and colon homogenate were determined using a qualified liquid chromatography-triple quadrupole mass spectrometry (LC-MS/MS) method. This protocol was used to evaluate IC dosing of the following test compounds: Examples 1, 3, and 4.

In a further series the target is JAK1-JH1JH2 (Homo sapiens (Human), UniProt P23458). Briefly: Enzymatic inhibition assay (RapidFire HTMS), JAK1. It is filed as biochemical. The following applies: 12.5 μM ATP, 200 μM substrate; read-out: JAK1-JH2JH1 IC50. The gist of the method:
(§1)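 Quenched with 0.5% TFA plus internal-standard peptide; phosphorylated product quantified by RapidFire C4 SPE–ESI-MS, 11-point 1:3 or 1:4 dilutions in duplicate.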

A further series addresses JAK2-JH1JH2 (Homo sapiens (Human), UniProt O60674). Nature of the series: Enzymatic inhibition assay (RapidFire HTMS), JAK2. Conditions: 30 μM ATP, 40 μM substrate. It is filed as biochemical. A digest of the protocol: as §1
In another series the target is JAK3-JH1JH2 (Homo sapiens (Human), UniProt P52333). Briefly: Enzymatic inhibition assay (RapidFire HTMS), JAK3. The following applies: 150 μM ATP, 40 μM substrate. Type of series: biochemical. A digest of the protocol:
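Compounds tested in duplicate over 11-point 1:3 or 1:4 dilution series; no-enzyme wells as negative control. After 45 min at 25 °C, TFA quench with internal standard, and phosphorylated product quantified by RapidFire–QTrap mass spectrometry relative to the uninhibited reaction.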

The mark [2] stands for this setting: female, C57BL/6, mouse, other: intracolonic (i.c.), 5 mg/kg i.c.
Setting [3] is: female, C57BL/6, mouse, plasma, other: intracolonic (i.c.), 5 mg/kg i.c., read-out: Plasma Concentration After i.c. Dosing, Mean.

Sequence of JAK2-JH1JH2 (O60674 532-1132): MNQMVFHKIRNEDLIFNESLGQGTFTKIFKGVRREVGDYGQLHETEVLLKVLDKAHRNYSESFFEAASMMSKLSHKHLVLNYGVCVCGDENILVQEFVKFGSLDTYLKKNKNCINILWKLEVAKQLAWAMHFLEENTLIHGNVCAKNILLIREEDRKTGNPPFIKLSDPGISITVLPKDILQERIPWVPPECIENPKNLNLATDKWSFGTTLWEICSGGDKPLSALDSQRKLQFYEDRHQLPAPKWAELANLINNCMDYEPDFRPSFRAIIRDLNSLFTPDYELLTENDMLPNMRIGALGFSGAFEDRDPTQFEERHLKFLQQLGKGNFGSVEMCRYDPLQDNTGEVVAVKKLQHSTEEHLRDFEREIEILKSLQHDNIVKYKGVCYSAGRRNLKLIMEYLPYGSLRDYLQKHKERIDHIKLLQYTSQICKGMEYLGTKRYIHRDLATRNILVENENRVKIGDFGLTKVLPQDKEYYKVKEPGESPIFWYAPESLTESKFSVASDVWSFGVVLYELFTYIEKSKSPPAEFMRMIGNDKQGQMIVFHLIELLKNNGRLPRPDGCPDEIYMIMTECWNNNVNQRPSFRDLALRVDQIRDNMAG
Sequence of JAK3-JH1JH2 (P52333 512-1124): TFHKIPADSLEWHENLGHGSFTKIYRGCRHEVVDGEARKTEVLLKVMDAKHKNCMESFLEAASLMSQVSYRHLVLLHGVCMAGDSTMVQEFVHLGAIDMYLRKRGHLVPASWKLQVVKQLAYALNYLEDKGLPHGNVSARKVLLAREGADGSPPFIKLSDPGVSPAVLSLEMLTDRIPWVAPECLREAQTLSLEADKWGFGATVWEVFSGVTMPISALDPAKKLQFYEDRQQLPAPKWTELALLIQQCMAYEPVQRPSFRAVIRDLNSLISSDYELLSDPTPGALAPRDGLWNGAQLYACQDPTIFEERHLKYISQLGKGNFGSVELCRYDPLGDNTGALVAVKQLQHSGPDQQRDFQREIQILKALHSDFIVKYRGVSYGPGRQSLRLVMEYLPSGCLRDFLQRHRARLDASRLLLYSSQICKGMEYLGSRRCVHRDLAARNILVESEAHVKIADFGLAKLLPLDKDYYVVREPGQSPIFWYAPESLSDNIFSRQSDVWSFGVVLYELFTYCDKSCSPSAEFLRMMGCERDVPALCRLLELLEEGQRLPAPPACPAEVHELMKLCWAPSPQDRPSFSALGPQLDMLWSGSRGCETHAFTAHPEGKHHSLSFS
Sequence of JAK1-JH1JH2 (P23458 574-1154): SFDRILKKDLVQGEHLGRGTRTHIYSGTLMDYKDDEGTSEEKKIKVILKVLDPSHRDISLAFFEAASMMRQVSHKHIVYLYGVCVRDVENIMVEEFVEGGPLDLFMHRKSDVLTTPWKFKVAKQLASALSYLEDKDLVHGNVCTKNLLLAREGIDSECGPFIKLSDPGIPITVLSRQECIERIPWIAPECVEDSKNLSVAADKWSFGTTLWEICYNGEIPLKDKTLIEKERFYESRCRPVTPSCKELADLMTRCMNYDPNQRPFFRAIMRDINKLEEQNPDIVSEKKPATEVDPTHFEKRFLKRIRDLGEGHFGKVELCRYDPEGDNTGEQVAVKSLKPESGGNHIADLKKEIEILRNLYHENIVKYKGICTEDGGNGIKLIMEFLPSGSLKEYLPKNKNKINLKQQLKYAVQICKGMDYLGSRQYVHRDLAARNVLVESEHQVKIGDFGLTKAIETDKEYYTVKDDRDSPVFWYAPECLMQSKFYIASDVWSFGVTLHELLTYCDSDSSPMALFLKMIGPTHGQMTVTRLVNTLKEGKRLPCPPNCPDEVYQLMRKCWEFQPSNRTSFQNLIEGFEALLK

In the case of `N#CCCNC(=O)Cc1nc2cnc3[nH]ccc3c2n1[C@H]1CC[C@H](CC#N)CC1` [Ex. 4, N-(2-Cyanoethyl)-2-(1-((1r,4r)-4-(cyanomethyl)cyclohexyl)-1,6-dihydroimidazo[4,5-d]pyrrolo[2,3-b]pyridin-2-yl)acetamide], the concentration at 4 h in series [1] (setting [2]) was 26.1 ng/g. In series [1] (setting [3]), the concentration at 0.5 h was found to be 3.8 ng/mL. For the same compound, the concentration at 2 h in series [1] (female, C57BL/6, mouse, plasma, other: intracolonic (i.c.), 5 mg/kg i.c., Time = 2 h, read-out: Plasma Concentration After i.c. Dosing, Mean) was determined as 2.5 ng/mL. The “systemic exposures after i.c. dosing” value in series [1] was “low systemic exposures”.

As for `N#CC[C@H]1CC[C@H](n2c(CC(=O)NCC3(O)CC3)nc3cnc4[nH]ccc4c32)CC1` [Ex. 85, 2-(1-((1r,4r)-4-(Cyanomethyl)cyclohexyl)-1,6-dihydroimidazo[4,5-d]pyrrolo[2,3-b]pyridin-2-yl)-N-((1-hydroxycyclopropyl)methyl)acetamide], the IC50 – broadly, the concentration at which inhibition is half-maximal – at JAK1-JH1JH2 turned out to be 0.4 nM; against JAK2-JH1JH2, 6.2 nM; at JAK3-JH1JH2, 68.2 nM.

Turning to `N#CC[C@H]1CC[C@H](n2c(CC(=O)NCC3CC3)nc3cnc4[nH]ccc4c32)CC1` [Ex. 3, 2-(1-((1r,4r)-4-(Cyanomethyl)cyclohexyl)-1,6-dihydroimidazo[4,5-d]pyrrolo[2,3-b]pyridin-2-yl)-N-(cyclopropylmethyl)acetamide], in series [1] (setting [2]), the concentration at 4 h is 228 ng/g. For the same compound, in series [1] (setting [3]), the concentration at 0.5 h stood at 1.5 ng/mL. The “systemic exposures after i.c. dosing” value in series [1] is “low systemic exposures”.

As to `CC(C)(C#N)CNC(=O)Cc1nc2cnc3[nH]ccc3c2n1[C@H]1CC[C@H](CC#N)CC1` [Ex. 22, N-(2-Cyano-2-methylpropyl)-2-(1-((1r,4r)-4-(cyanomethyl)cyclohexyl)-1,6-dihydroimidazo[4,5-d]pyrrolo[2,3-b]pyridin-2-yl)acetamide], the IC50 came out at 0.1 nM on JAK1-JH1JH2, 5.4 nM at JAK2-JH1JH2 and 93.6 nM on JAK3-JH1JH2.

On to `N#CCC12CCC(NC(=O)Cc3nc4cnc5[nH]ccc5c4n3[C@H]3CC[C@H](CC#N)CC3)(CC1)C2` [Ex. 55, N-(4-(Cyanomethyl)bicyclo[2.2.1]heptan-1-yl)-2-(1-((1r,4r)-4-(cyanomethyl)cyclohexyl)-1,6-dihydroimidazo[4,5-d]pyrrolo[2,3-b]pyridin-2-yl)acetamide], for which the IC50 on JAK1-JH1JH2 came to 0.2 nM; at JAK2-JH1JH2 it was 2.9 nM; on JAK3-JH1JH2 it was 59.6 nM.

With `CC(C)(O)CNC(=O)Cc1nc2cnc3[nH]ccc3c2n1[C@H]1CC[C@H](CC#N)CC1` [Ex. 1, 2-(1-((1r,4r)-4-(Cyanomethyl)cyclohexyl)-1,6-dihydroimidazo[4,5-d]pyrrolo[2,3-b]pyridin-2-yl)-N-(2-hydroxy-2-methylpropyl)acetamide], the IC50 at JAK1-JH1JH2 was 0.3 nM; against JAK2-JH1JH2, 8.2 nM; at JAK3-JH1JH2 it was 87.8 nM. Moreover, the concentration at 4 h in series [1] (setting [2]) worked out at 681 ng/g. Besides, in series [1] (setting [3]), the concentration at 0.5 h worked out at 2.5 ng/mL. The “systemic exposures after i.c. dosing” value in series [1] is listed as “low systemic exposures”.

For `N#CC[C@H]1CC[C@H](n2c(CC(=O)NCC3(O)CCC3)nc3cnc4[nH]ccc4c32)CC1` [Ex. 34, 2-(1-((1r,4r)-4-(Cyanomethyl)cyclohexyl)-1,6-dihydroimidazo[4,5-d]pyrrolo[2,3-b]pyridin-2-yl)-N-((1-hydroxycyclobutyl)methyl)acetamide], the IC50 on JAK1-JH1JH2 came out at 0.2 nM; against JAK2-JH1JH2, 3.1 nM; against JAK3-JH1JH2, 42.5 nM.

The values above are taken from US10981911B2, “Imidazopyrrolopyridine as inhibitors of the JAK family of kinases” (Janssen Pharmaceutica NV, priority 2016, dated 2021).
